The text below walks through data of patent US10703765B2 (priority 2014, dated 2020).

Where a name gives a salt, the structure may show the parent alone.

In the first assay the target is human σ1 receptor (Homo sapiens, UniProt Q99720). In words: biochemical. It is filed as binding. Also on record: μ and σ1 dual binding: key to the marks not given beside the values.
Sequence of human σ1 receptor (Q99720 whole entry): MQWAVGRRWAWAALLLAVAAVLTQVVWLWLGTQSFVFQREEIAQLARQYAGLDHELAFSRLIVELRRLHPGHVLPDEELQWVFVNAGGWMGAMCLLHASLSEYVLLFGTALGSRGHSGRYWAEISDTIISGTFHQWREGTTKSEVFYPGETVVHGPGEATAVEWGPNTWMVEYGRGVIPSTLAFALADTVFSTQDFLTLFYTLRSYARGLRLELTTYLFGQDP
Details: not given
`CC1OC2(CCN(CCc3cc(C(F)(F)F)ccn3)CC2)CN(c2ccccc2)C1=O` (stereo not drawn) [Example 28, 2-methyl-4-phenyl-9-(2-(4-(trifluoromethyl)pyridin-2-yl)ethyl)-1-oxa-4,9-diazaspiro[5.5]undecan-3-one hydrochloride] gave a Ki of less than 100 nM. Take `Cl.O=C1COC2(CCN(CCc3ccccc3)CC2)CN1Cc1nccn1Cc1ccccc1` [Example 168, 4-((1-benzyl-1H-imidazol-2-yl)methyl)-9-phenethyl-1-oxa-4,9-diazaspiro[5.5]undecan-3-one hydrochloride]: the “μ and σ1 dual binding” value is given as “++”. Molecule `CC1OC2(CCN(CCc3cccc(NC(N)=O)c3)CC2)CN(c2ccccc2)C1=O` (stereo not drawn) [Example 262, 1-(3-(2-(2-methyl-3-oxo-4-phenyl-1-oxa-4,9-diazaspiro[5.5]undecan-9-yl)ethyl)phenyl)urea] yielded a Ki of less than 500 nM. In turn, `O=C1COC2(CCN(CCc3ccccc3)CC2)CN1Cc1ccc(C(F)(F)F)cn1` [Example 177, 9-phenethyl-4-((5-(trifluoromethyl)pyridin-2-yl)methyl)-1-oxa-4,9-diazaspiro[5.5]undecan-3-one hydrochloride] yielded a Ki of less than 100 nM. As to `O=C1COC2(CCN(CCc3ccc(O)cc3)CC2)CN1c1ccccc1` [Example 290, 9-(4-hydroxyphenethyl)-4-phenyl-1-oxa-4,9-diazaspiro[5.5]undecan-3-one], the “μ and σ1 dual binding” value is recorded as “++”.

Consider `Nc1nc(CCN2CCC3(CC2)CN(Cc2ccc(C(F)(F)F)cn2)C(=O)C2(CC2)O3)cs1` [Example 308, 8-[2-(2-aminothiazol-4-yl)ethyl]-12-{[5-(trifluoromethyl)pyridin-2-yl]methyl}-4-oxa-8,12-diazadispiro[2.1.5.3]tridecan-13-one trihydrochloride], for which the “μ and σ1 dual binding” value was “++”.

On to `CC1OC2(CCN(CCc3cccc(C(F)(F)F)n3)CC2)CN(c2ccccc2F)C1=O` (stereo not drawn) [Example 31, 4-(2-fluorophenyl)-2-methyl-9-(2-(6-(trifluoromethyl)pyridin-2-yl)ethyl)-1-oxa-4,9-diazaspiro[5.5]undecan-3-one hydrochloride], for which the Ki is less than 500 nM. Regarding `COc1ccccc1CCN1CCC2(CC1)CN(c1ccccc1)CCO2.Cl` [Example 334, 9-(2-methoxyphenethyl)-4-phenyl-1-oxa-4,9-diazaspiro[5.5]undecane hydrochloride], the “μ and σ1 dual binding” value is on record as “++”. Still for that read-out and setting: as for `CC(=O)Nc1cccc(CCN2CCC3(CC2)CN(c2ccccc2)C(=O)C(C)O3)n1.Cl` (stereo not drawn) [Example 254, N-(6-(2-(2-methyl-3-oxo-4-phenyl-1-oxa-4,9-diazaspiro[5.5]undecan-9-yl)ethyl)pyridin-2-yl)acetamide hydrochloride], the entry is “++”.

In turn, `O=C1C(=CC2CCOCC2)OC2(CCN(CCc3ccccc3)CC2)CN1c1ccccc1F` [Example 80, 4-(2-fluorophenyl)-9-phenethyl-2-((tetrahydro-2H-pyran-4-yl)methylene)-1-oxa-4,9-diazaspiro[5.5]undecan-3-one] came in with a Ki of less than 500 nM. Still for that read-out and setting: as for `COCC1OC2(CCN(CCc3ccccc3F)CC2)CN(c2ccccc2F)C1=O` (stereo not drawn) [Example 136, 9-(2-fluorophenethyl)-4-(2-fluorophenyl)-2-(methoxymethyl)-1-oxa-4,9-diazaspiro[5.5]undecan-3-one hydrochloride], the figure is less than 500 nM; as for `CC1OC2(CCN(CCc3ccccc3)CC2)CN(c2ccc3c(c2)OCO3)C1=O` (stereo not drawn) [Example 202, 4-(benzo[d][1,3]dioxol-5-yl)-2-methyl-9-phenethyl-1-oxa-4,9-diazaspiro[5.5]undecan-3-one hydrochloride], less than 500 nM. Still for that read-out and setting: as for `CC1OC2(CCN(CCc3ncccc3C(F)(F)F)CC2)CN(c2ccccc2)C1=O` (stereo not drawn) [Example 33, 2-methyl-4-phenyl-9-(2-(3-(trifluoromethyl)pyridin-2-yl)ethyl)-1-oxa-4,9-diazaspiro[5.5]undecan-3-one hydrochloride], the figure is less than 500 nM.

As for `Cl.O=C1COC2(CCN(CCc3ccccc3)C2)CN1c1ccccc1` (stereo not drawn) [Example 149, 2-phenethyl-9-phenyl-6-oxa-2,9-diazaspiro[4.5]decan-8-one hydrochloride], the “μ and σ1 dual binding” value is on record as “++”.

Still in this assay, the particulars now being: combined class from Ki-σ1 (human σ1 receptor, A1) and Ki-μ (human μ-opioid receptor, A2) radioligand binding.
On to `O=C1COC2(CCN(CCc3ccccc3)CC2)CN1c1ccccc1O` [Example 286, 4-(2-hydroxyphenyl)-9-phenethyl-1-oxa-4,9-diazaspiro[5.5]undecan-3-one], for which the “μ and σ1 dual binding” value is “++”. As to `O=C1COC2(CCN(Cc3ccccc3)C2)CN1c1ccccc1` (stereo not drawn) [Example 7, 2-benzyl-9-phenyl-6-oxa-2,9-diazaspiro[4.5]decan-8-one], the “μ and σ1 dual binding” value is on record as “++”. The same measure, in the same setting: as for `CC1OC2(CCN(CCc3cccc(NC(=O)N(C)C)c3)CC2)CN(c2ccccc2)C1=O` (stereo not drawn) [Example 248, 1,1-dimethyl-3-(3-(2-(2-methyl-3-oxo-4-phenyl-1-oxa-4,9-diazaspiro[5.5]undecan-9-yl)ethyl)phenyl)urea], the entry is “++”; as for `COc1cccc(N2CC3(CCN(Cc4ccccc4)CC3)OCC2=O)c1` [Example 6, 9-benzyl-4-(3-methoxyphenyl)-1-oxa-4,9-diazaspiro[5.5]undecan-3-one], “++”; as for `O=C1COC2(CCN(Cc3ccccc3)CC2)CN1c1cccc(O)c1` [Example 287, 9-benzyl-4-(3-hydroxyphenyl)-1-oxa-4,9-diazaspiro[5.5] undecan-3-one], “++”. On the same count and under the same terms, as for `CC1OC2(CCN(CCc3ncccc3N)CC2)CN(c2ccccc2F)C1=O` (stereo not drawn) [Example 232, 9-(2-(3-aminopyridin-2-yl)ethyl)-4-(2-fluorophenyl)-2-methyl-1-oxa-4,9-diazaspiro[5.5]undecan-3-one], the entry is “++”.

Staying with this assay, now noted: read-out: μ and σ1 dual binding.
Regarding `Nc1cccc(CCN2CCC3(CC2)CN(Cc2ccc(C(F)(F)F)cn2)C(=O)CO3)c1` [Example 235, 9-(3-aminophenethyl)-4-((5-(trifluoromethyl)pyridin-2-yl)methyl)-1-oxa-4,9-diazaspiro[5.5]undecan-3-one], the Ki was greater than 500 nM. On the same count and under the same terms, as for `O=C1N(Cc2ccc(C(F)(F)F)cn2)CC2(CCN(CCc3cccc([N+](=O)[O-])c3)CC2)OC12CC2` [Example 119, 8-(3-nitrophenethyl)-12-{[5-(trifluoromethyl)pyridin-2-yl]methyl}-4-oxa-8,12-diazadispiro[2.1.5.3]tridecan-13-one], the figure is greater than 500 nM.

For the molecule `CC1OC2(CCN(CCn3nccc3NC(=O)OC(C)(C)C)CC2)CN(c2ccccc2)C1=O` (stereo not drawn) [Example 116, tert-butyl (1-(2-(2-methyl-3-oxo-4-phenyl-1-oxa-4,9-diazaspiro[5.5]undecan-9-yl)ethyl)-1H-pyrazol-5-yl)carbamate], the Ki is greater than 500 nM. As to `CC(=O)Nc1cccc(CCN2CCC3(CC2)CN(c2ccccc2)C(=O)C(C)O3)c1` (stereo not drawn) [Example 243, N-(3-(2-(2-methyl-3-oxo-4-phenyl-1-oxa-4,9-diazaspiro[5.5]undecan-9-yl)ethyl)phenyl)acetamide], the Ki is less than 500 nM. Turning to `CC1OC2(CCN(CCc3cccc([N+](=O)[O-])c3)CC2)CN(c2ccccc2)C1=O` (stereo not drawn) [Example 67, 2-methyl-9-(3-nitrophenethyl)-4-phenyl-1-oxa-4,9-diazaspiro[5.5]undecan-3-one], the Ki is greater than 500 nM. Still for that read-out and setting: as for `CS(=O)(=O)Nc1cccc(CCN2CCC3(CC2)CN(c2ccccc2)C(=O)C2(CC2)O3)c1` [Example 260, N-[3-(2-{13-oxo-12-phenyl-4-oxa-8,12-diazadispiro[2.1.5.3]tridecan-8-yl}ethyl)phenyl]methanesulfonamide hydrochloride], the figure is less than 500 nM; as for `C=C1OC2(CCN(CCc3ccccc3)CC2)CN(c2ccccc2)C1=O` [Example 21, 2-methylene-9-phenethyl-4-phenyl-1-oxa-4,9-diazaspiro[5.5]undecan-3-one], greater than 500 nM; as for `CC(C)=C1OC2(CCN(CCc3ccccn3)CC2)CN(c2ccccc2F)C1=O` [Example 139], greater than 500 nM. Still for that read-out and setting: as for `Fc1cccnc1CCN1CCC2(CC1)CN(Cc1ccccc1)CC1(CC1)O2` [Example 344, 12-benzyl-8-(2-(3-fluoropyridin-2-yl)ethyl)-4-oxa-8,12-diazadispiro[2.1.5.3]tridecane], the figure is less than 100 nM; as for `COCCCN1CC2(CCN(CCc3ccccc3)CC2)OC2(CC2)C1=O` [Example 180, 12-(3-methoxypropyl)-8-phenethyl-4-oxa-8,12-diazadispiro[2.1.5.3]tridecan-13-one hydrochloride], less than 500 nM; as for `O=C(CN1CCC2(CC1)CN(Cc1ccc(C(F)(F)F)cn1)C(=O)CO2)c1ccccc1` [Example 99, 9-(2-oxo-2-phenylethyl)-4-((5-(trifluoromethyl)pyridin-2-yl)methyl)-1-oxa-4,9-diazaspiro[5.5]undecan-3-one], greater than 500 nM. Still for that read-out and setting: as for `O=C(CN1CCC2(CC1)CN(c1ccccc1)C(=O)C1(CC1)O2)c1ccccc1` [Example 97, 8-(2-oxo-2-phenylethyl)-12-phenyl-4-oxa-8,12-diazadispiro[2.1.5.3]tridecan-13-one], the figure is greater than 500 nM; as for `c1ccc(CCN2CCC3(CC2)CN(Cc2ccccc2)CCO3)cc1` [Example 324, 4-benzyl-9-phenethyl-1-oxa-4,9-diazaspiro[5.5]undecane dihydrochloride], less than 100 nM. For `Nc1nc(CCN2CCC3(CC2)CN(Cc2ccc(C(F)(F)F)cn2)C(=O)CO3)cs1` [Example 304, 9-(2-(2-aminothiazol-4-yl)ethyl)-4-((5-(trifluoromethyl)pyridin-2-yl)methyl)-1-oxa-4,9-diazaspiro[5.5]undecan-3-one], the Ki was less than 500 nM. The same measure, in the same setting: as for `CC1OC2(CCN(CCc3ccccc3F)CC2)CN(c2cnccc2C(F)(F)F)C1=O` (stereo not drawn) [Example 126, 9-(2-fluorophenethyl)-2-methyl-4-(4-(trifluoromethyl)pyridin-3-yl)-1-oxa-4,9-diazaspiro[5.5]undecan-3-one hydrochloride], the figure is less than 100 nM. Still for that read-out and setting: as for `O=C1N(c2ccccc2)CC2(CCN(CCc3cccc([N+](=O)[O-])c3)CC2)OC12CC2` [Example 92, 8-(3-nitrophenethyl)-12-phenyl-4-oxa-8,12-diazaspiro[2.1.5.3]tridecan-13-one], the figure is greater than 500 nM.
